Consider one compound from US10907214B2, “Methods for predicting drug responsiveness in cancer patients” (Oncology Venture ApS, priority 2016, dated 2021).

In this experiment the test system is patients having breast cancer. The experiment can be described thus: Clinical trial 2: retrospective analysis, breast cancer patients treated with cisplatin, stratified by biomarkers. It is filed as in vivo, human. The settings on record: Trial 2, breast cancer, neoadj, N=24. The source says:
Table 5 below summarizes the results of these studies.

Each structure is given as a SMILES string.

Regarding `N.N.[Cl][Pt][Cl]` [Cisplatin, cisplatin], the “overall response rate (ORR)” value by setting is: (patients predicted in bottom 10% of responsiveness) “ORR 50%”; (patients predicted in top 10% of responsiveness) “ORR 100%”.
